In patent US20250320215A1, “SALTS OF N-[4-(4-[[2-(DIMETHYLAMINO)ETHYL]AMINO]-3-METHYL-1H-PYRAZOLO[3,4-D]PYRIMIDIN-6-YL)-2-FLUOROPHENYL]-2,5-DIFLUOROBENZENESULFONAMIDE AND CRYSTALLINE FORMS THEREOF” (THRYV THERAPEUTICS INC, priority 2022, published 2025):

Assay: Dynamic vapor sorption/desorption (DVS) with post-DVS XRPD
Type: physicochemical
Experimental: Moisture sorption/desorption data were collected on a DVS Intrinsic. 7-20 mg of a sample was placed into a tared sample chamber and automatically weighed. The anhydrates were analyzed with the following setting parameters:
DVS experiments (FIGS. 17, 19, 21, 34, 35, 48 and 50) and XRPD post-DVS experiments (FIGS. 18, 20, 22, 36, 49 and 51) were conducted in order to study the deliquescence behaviour of the crystalline salts upon expose to humidity.

Cc1n[nH]c2nc(-c3ccc(NS(=O)(=O)c4cc(F)ccc4F)c(F)c3)nc(NCCN(C)C)c12 [Compound 4 Form B]
Comments: hygroscopicity (DVS): Hygroscopic | hygroscopicity: hygroscopic | Post-DVS XRPD (XRPD after DVS versus before): No change | wt % gain (DVS) (at 80% RH (25° C.)): 9.16 wt % | water uptake (DVS) (at 80% RH, 25° C.): 9.16% | Reversibility (DVS) (sorption/desorption): Reversible
